The target of test [1] is T1, GnRH receptor (Homo sapiens, UniProt P30968).
T1 sequence (P30968 1-328): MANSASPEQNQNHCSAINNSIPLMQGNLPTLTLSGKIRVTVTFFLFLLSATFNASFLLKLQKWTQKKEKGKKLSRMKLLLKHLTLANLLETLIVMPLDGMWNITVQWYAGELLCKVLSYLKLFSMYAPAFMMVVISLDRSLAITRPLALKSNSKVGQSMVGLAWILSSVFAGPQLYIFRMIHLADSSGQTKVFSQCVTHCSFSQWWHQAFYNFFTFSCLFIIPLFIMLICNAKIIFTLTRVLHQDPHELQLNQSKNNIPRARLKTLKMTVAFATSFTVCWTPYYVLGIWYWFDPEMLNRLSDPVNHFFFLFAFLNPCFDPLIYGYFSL
The test is described as follows: NFAT reporter (luciferase) gene expression assay for antagonistic effect on GnRH receptor, HEK293 transformed with pcDNA3.1/GnRH receptor and pGL4/NFAT promoter. It is filed as cell-based. Here is the method: For evaluation of antagonistic effect on GnRH receptor, double-transformed cell line, HEK293 (ATCC CRL-1573) which is transformed with pcDNA3.1/GnRH receptor and pGL4/NFAT promoter, was employed.
To conduct a GnRH receptor assay, the HEK293 (ATCC CRL-1573) cell line was diluted at a density of 3×10^4 cells/well in a DMEM medium supplemented with 10% FBS, 1% Penicillin-Streptomycin, and plated into polylysine-coated 96-well plates having a white-clear bottom, followed by incubating the cells at 37° C. for 24 hrs. Then, the medium was changed with a serum-free DMEM medium (1% Penicillin-Streptomycin), and the cells were incubated for an additional 16 hrs before use.
Test compounds were added to the wells in an amount of 1 μM to 0.01 nM, respectively, and further incubated for 1 hr. Then, leuprolide acetate as a ligand (Sigma) was added to the wells in an amount of 1 nM or 20 nM and subjected to an additional incubation for 6 hrs. The reagent of Luciferase assay system (Promega, Cat. No. E1500) was added to the wells and luminescence was measured using a luminometer (PerkinElmer, VICTOR3™, 1420 Multilabel Counter). The compound of formula 10b described in J. Med. Chem. 2008, 51, 7478 was used as a comparative compound.
Each sample was analyzed at a 6-dose level and the NFAT reporter inhibitory rate (%) of the inventive compounds was calculated according to the following equation based on the measured luminescence. Inhibition (%)={1−(compound−negative control)/(positive control−negative control)}×100 [Equation]
wherein, positive control is GnRH treated group; and negative control is non-treated group.

Test [2] addresses T1, GnRH receptor. The test can be described thus: GnRH receptor-membrane binding assay ([125I]-D-Trp6-LHRH displacement). The arrangement: purchased PerkinElmer; host or cells: CHO-K1 (ATCC CCL-61), stably transfected. The conditions noted are these: for inhibition at 0.01 µM: read-out: GnRH binding inhibition (%) at 10 nM; for inhibitory effect compared with compounds comprising alkyl group (Examples 1-2 and 1-3): benzyl versus alkyl substituent at spiro-piperidine, comment on Table 10 (binding and NFAT reporter). Here is the method: A GnRH receptor membrane binding assay was carried out for the compounds of the present invention by employing a membrane substrate (PerkinElmer) isolated from CHO-K1 cells (ATCC CCL-61) stably transfected with a GnRH receptor.
A reaction was initiated by the addition of a 0.2 nM [^125I]-labeled D-Trp^6-LHRH peptide and the GnRH receptor membrane substrate at a density of 1 μg/250 μL/well, together with the inventive compounds at various concentrations ranging from 0.1 nM to 100 nM, to a binding buffer composed of 25 mM Hepes (pH 7.4), 10 mM MgCl2, 1 mM CaCl2 and 0.5% BSA (pH 7.4). The reaction mixture was incubated at 27° C. for 1 hr and subjected to vacuum suction for binding to a filter (Fitermat A, PerkinElmer). The filter was washed several times with 50 mM tris-HCl buffer to terminate the reaction. The radioactivity binding to the filter was measured using MicroBeta2 TriLux (PerkinElmer). The binding inhibition rate (%) of the inventive compounds were analyzed on the basis of the measured radioactivity, and IC50 value was calculated using a non-linear least square regression method with Prism (GraphPad, Inc.).

Setting [3] is: HEK293, read-out: NFAT reporter activity inhibition (%) at 100 nM.
The mark [4] stands for this setting: compound at 10 nM, 0.2 nM [125I]-D-Trp6-LHRH, CHO-K1 GnRH receptor membrane.
The mark [5] stands for this setting: compound at 100 nM, leuprolide acetate as ligand, HEK293, read-out: NFAT reporter activity inhibition (%) at 100 nM.

The structures appear in SMILES notation. Like-named read-outs stand apart in the source and are kept apart here.

Broadly, the inhibition is the drop in the measured response relative to a control, in per cent. `COc1cccc(CN2CCC3(CC2)OCc2c3c(=O)n(C[C@H](N)c3ccccc3)c(=O)n2Cc2c(F)cccc2C(F)(F)F)c1` [Example 1-14, (R)-3-(2-amino-2-phenylethyl)-1-(2-fluoro-6-(trifluoromethyl)benzyl)-1′-(3-methoxybenzyl)-1H-spiro[furo[3,4-d]pyrimidine-5,4′-piperidine]-2,4(3H,7H)-dione]: the inhibition at 0.1 µM in test [1] (setting [3]) came out at 34%. In test [2], the inhibition at 0.01 µM was found to be 96%.

As for `N#Cc1cccc(CN2CCC3(CC2)OCc2c3c(=O)n(C[C@H](N)c3ccccc3)c(=O)n2Cc2c(F)cccc2C(F)(F)F)c1` [Example 1-15, (R)-3-((3-(2-amino-2-phenylethyl)-1-(2-fluoro-6-(trifluoromethyl)benzyl)-2,4-dioxo-2,3,4,7-tetrahydro-1H-spiro[furo[3,4-d]pyrimidine-5,4′-piperidine]-1′-yl)methyl)benzonitrile], the inhibition at 0.1 µM in test [1] (setting [3]) turned out to be 67%. Also, in test [2], the “inhibitory effect compared with compounds comprising alkyl group (Examples 1-2 and 1-3)” value is “improved inhibitory effect”; the inhibition at 0.01 µM was 91.3%.

As for `Cc1cccc(C(Cn2c(=O)c3c(n(Cc4c(F)cccc4C(F)(F)F)c2=O)COC32CCN(Cc3ccc(C(F)(F)F)o3)CC2)NCCCC(=O)O)n1` (stereo not shown) [Example 36, 4-((2-(1-(2-fluoro-6-(trifluoromethyl)benzyl)-2,4-dioxo-1′-((5-(trifluoromethyl)furan-2-yl)methyl)-1H-spiro[furo[3,4-d]pyrimidine-5,4′-piperidin]-3(2H,4H,7H)-yl)-1-(6-methylpyridin-2-yl)ethyl)amino)butanoic acid], the inhibition at 0.01 µM in test [1] (compound at 10 nM, leuprolide acetate as ligand, HEK293) was 88.2%; in test [2] (setting [4]) it was 88%.

On to `N[C@@H](Cn1c(=O)c2c(n(Cc3c(F)cccc3F)c1=O)COC21CCN(Cc2ccc(C(F)(F)F)o2)CC1)c1ccccc1` [Example 1-42, (R)-3-(2-amino-2-phenylethyl)-1-(2,6-difluorobenzyl)-1′-((5-(trifluoromethyl)furan-2-yl)methyl)-1H-spiro[furo[3,4-d]pyrimidine-5,4′-piperidine]-2,4(3H,7H)-dione], for which the inhibition at 0.1 µM in test [1] (setting [5]) amounted to 82%. In addition, the inhibition at 0.01 µM in test [2] (setting [4]) amounted to 93.9%.

Take `N[C@@H](Cn1c(=O)c2c(n(Cc3c(F)cccc3C(F)(F)F)c1=O)COC21CCN(Cc2cocn2)CC1)c1ccccc1` [Example 1-63, (R)-3-(2-amino-2-phenylethyl)-1-(2-fluoro-6-(trifluoromethyl)benzyl)-1′-(oxazol-4-ylmethyl)-1H-spiro[furo[3,4-d]pyrimidine-5,4′-piperidine]-2,4(3H,7H)-dione]: the inhibition at 0.1 µM in test [1] (setting [5]) turned out to be 18%. In addition, the inhibition at 0.01 µM in test [2] (setting [4]) is 88.6%.

Consider `N[C@@H](Cn1c(=O)c2c(n(Cc3c(F)cccc3C(F)(F)F)c1=O)COC21CCN(Cc2ccc(Cl)cc2)CC1)c1ccccc1` [Example 1-51, (R)-3-(2-amino-2-phenylethyl)-1′-(4-chlorobenzyl)-1-(2-fluoro-6-(trifluoromethyl)benzyl)-1H-spiro[furo[3,4-d]pyrimidine-5,4′-piperidine]-2,4(3H,7H)-dione], for which, in test [1] (setting [5]), the inhibition at 0.1 µM turned out to be 30%. For the same compound, the inhibition at 0.01 µM in test [2] (setting [4]) was 95.6%.

Take `N[C@@H](Cn1c(=O)c2c(n(Cc3c(F)cccc3C(F)(F)F)c1=O)COC21CCN(Cc2ccccc2F)CC1)c1ccccc1` [Example 1-29, (R)-3-(2-amino-2-phenylethyl)-1-(2-fluoro-6-(trifluoromethyl)benzyl)-1′-(2-fluorobenzyl)-1H-spiro[furo[3,4-d]pyrimidine-5,4′-piperidine]-2,4(3H,7H)-dione]: in test [1] (setting [5]), the inhibition at 0.1 µM came out at 58%. The inhibition at 0.01 µM in test [2] (setting [4]) is 104%.

As to `COC(=O)c1cccc(CN2CCC3(CC2)OCc2c3c(=O)n(C[C@H](N)c3ccccc3)c(=O)n2Cc2c(F)cccc2C(F)(F)F)c1` [Example 1-19, (R)-methyl 3-((3-(2-amino-2-phenylethyl)-1-(2-fluoro-6-(trifluoromethyl)benzyl)-2,4-dioxo-2,3,4,7-tetrahydro-1H-spiro[furo[3,4-d]pyrimidine-5,4′-piperidin]-1′-yl)methyl)benzoate], in test [1] (setting [5]), the inhibition at 0.1 µM was 89%. Further, the “inhibitory effect compared with compounds comprising alkyl group (Examples 1-2 and 1-3)” value in test [2] is “improved inhibitory effect”. The inhibition at 0.01 µM in test [2] (setting [4]) worked out at 97.5%.

Turning to `N[C@@H](Cn1c(=O)c2c(n(Cc3c(F)cccc3C(F)(F)F)c1=O)CCC21CCN(Cc2ccc(C(F)(F)F)o2)CC1)c1ccccc1` [Example 3-5, (R)-3-(2-amino-2-phenylethyl)-1-(2-fluoro-6-(trifluoromethyl)benzyl)-1′-((5-(trifluoromethyl)furan-2-yl)methyl)-6,7-dihydrospiro[cyclopenta[d]pyrimidine-5,4′-piperidine]-2,4(1H,3H)-dione], the inhibition at 0.1 µM in test [1] (setting [5]) was 99%. Moreover, in test [2] (setting [4]), the inhibition at 0.01 µM worked out at 101%.

Take `Cc1ccc(CN2CCC3(CC2)OCc2c3c(=O)n(C[C@H](N)c3ccccc3)c(=O)n2Cc2c(F)cccc2C(F)(F)F)cc1` [Example 1-50, (R)-3-(2-amino-2-phenylethyl)-1-(2-fluoro-6-(trifluoromethyl)benzyl)-1′-(4-methylbenzyl)-1H-spiro[furo[3,4-d]pyrimidine-5,4′-piperidine]-2,4(3H,7H)-dione]: the inhibition at 0.1 µM in test [1] (setting [3]) was 17%. In addition, in test [2], the inhibition at 0.01 µM turned out to be 96.3%.

For the compound `COCCN1CCC2(CC1)OCc1c2c(=O)n(C[C@H](N)c2ccccc2)c(=O)n1Cc1c(F)cccc1C(F)(F)F` [Example 1-2, (R)-3-(2-amino-2-phenylethyl)-1-(2-fluoro-6-(trifluoromethyl)benzyl)-1′-(2-methoxyethyl)-1H-spiro[furo[3,4-d]pyrimidine-5,4′-piperidine]-2,4(3H,7H)-dione], in test [2] (setting [4]), the inhibition at 0.01 µM was 50.8%.

With `Cc1ccccc1CN1CCC2(CC1)OCc1c2c(=O)n(C[C@H](N)c2ccccc2)c(=O)n1Cc1c(F)cccc1C(F)(F)F` [Example 1-26, (R)-3-(2-amino-2-phenylethyl)-1-(2-fluoro-6-(trifluoromethyl)benzyl)-1′-(2-methylbenzyl)-1H-spiro[furo[3,4-d]pyrimidine-5,4′-piperidine]-2,4(3H,7H)-dione], the inhibition at 0.1 µM in test [1] (setting [5]) is 22%. The inhibition at 0.01 µM in test [2] (setting [4]) was determined as 102%.

For the compound `CC(C)(C)CN1CCC2(CC1)OCc1c2c(=O)n(C[C@H](N)c2ccccc2)c(=O)n1Cc1c(F)cccc1C(F)(F)F` [Example 1-3, (R)-3-(2-amino-2-phenylethyl)-1-(2-fluoro-6-(trifluoromethyl)benzyl)-1′-neopentyl-1H-spiro[furo[3,4-d]pyrimidine-5,4′-piperidine]-2,4(3H,7H)-dione], in test [1] (setting [3]), the inhibition at 0.1 µM is 15%.

Turning to `N[C@@H](Cn1c(=O)c2c(n(Cc3c(F)cccc3C(F)(F)F)c1=O)COC21CCN(Cc2cccc3nonc23)CC1)c1ccccc1` [Example 1-25, (R)-3-(2-amino-2-phenylethyl)-1′-(benzo[c][1,2,5]oxadiazol-4-ylmethyl)-1-(2-fluoro-6-(trifluoromethyl)benzyl)-1H-spiro[furo[3,4-d]pyrimidine-5,4′-piperidine]-2,4(3H,7H)-dione], the inhibition at 0.1 µM in test [1] (setting [5]) is 56%. Further, the inhibition at 0.01 µM in test [2] (setting [4]) was determined as 91.3%.

These data come from patent US9481684B2, “Gonadotropin releasing hormone receptor antagonists, method for the preparation thereof and pharmaceutical composition comprising the same” (SK CHEMICALS CO., LTD., priority 2012, dated 2016).
